Results reported in PubChem BioAssay (NCI).
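Protocol summary: plate cells (96-well), add compound at 5 concentrations, incubate 48 h, interpolate endpoints linearly. Here, GI50 denotes the concentration required for 50% inhibition of growth. TGI is the concentration that stops growth completely.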

Experiments:
Assay in all cases: growth of human tumour cells (NCI), 48 h
[1] = system: OVCAR-8 ovarian
[2] = system: SW-620 colon
[3] = system: HCT-116 colon
[4] = system: RXF 393 renal
[5] = system: NCI-H226 lung
[6] = system: MDA-MB-435
[7] = system: MDA-MB-231 breast
[8] = system: DU-145 prostate
[9] = system: T-47D breast
[10] = system: NCI/ADR-RES ovarian
[11] = system: MCF7 breast
[12] = system: BT-549 breast

Row | Compound | TGI [1] [µM] | TGI [2] [µM] | TGI [3] [µM] | TGI [4] [µM] | TGI [5] [µM] | TGI [6] [µM] | TGI [7] [µM] | TGI [8] [µM] | TGI [9] [µM] | TGI [10] [µM] | TGI [11] [µM] | GI50 [6] [µM] | GI50 [7] [µM] | GI50 [8] [µM] | GI50 [2] [µM] | GI50 [9] [µM] | GI50 [11] [µM] | GI50 [5] [µM] | GI50 [12] [µM] | TGI [12] [µM]
1 | COc1cc(Cc2ccc3c(c2C#N)N(C)c2ccccc2S3)cc(OC)c1OC | > 100 | > 100 | > 100 | > 100 | > 100 | – | – | – | – | – | – | – | – | – | – | – | – | – | – | –
2 | CCOC(=O)/C(=N/Nc1ccc(Cl)cc1)N1C(=S)C=C(C)NN(C)C1=S | 73.1 | > 100 | > 100 | 41.1 | – | > 100 | > 100 | > 100 | 98.3 | > 100 | > 100 | – | – | – | – | – | – | – | – | –
3 | COc1cc2nc(N3CCC[C@@H](NC4=CC(=O)c5ccccc5C4=O)C3)nc(N)c2cc1OC | – | 3.36 | – | – | 52.7 | 4.14 | 3.26 | 3.78 | 3.74 | – | 3.39 | 2 | 1.69 | 2.03 | 1.59 | 1.95 | 1.71 | 21.9 | 2.1 | 4.66
4 | CCOC(=O)C(=O)Nc1cccc(C)c1C | > 100 | > 100 | > 100 | – | > 100 | – | – | – | – | – | – | – | – | – | – | – | – | – | – | –
5 | COc1cc(C2S/C(=C/c3ccccc3)C(=O)N2c2ccccc2Cl)cc(OC)c1OC (stereo not drawn) | 49.8 | – | 62.6 | 45.1 | > 100 | 56.7 | 67.3 | – | 32.1 | 94.7 | > 100 | – | – | – | – | – | – | – | – | > 100
6 | COC(=O)C1=C(O)C(C(=O)OC)[C@@]2(O)[C@@H](C(=O)OC)CC[C@@H]1[C@@H]2C(=O)OC (stereo partly drawn) | – | – | > 100 | 61.2 | 70.9 | > 100 | 83.5 | > 100 | > 100 | – | > 100 | – | – | – | – | – | – | – | – | > 100
7 | BrC1=CN2C[n+]3cc(Br)c4ccccc4c3N=C2c2ccccc21 | 38.6 | > 100 | – | – | – | 19.2 | 34.6 | 33.3 | 18.8 | > 100 | 21.5 | – | – | – | – | – | – | – | – | 37.2
